Results from patent publication US12643882B2, “Inhibitors of human respiratory syncytial virus and metapneumovirus” (priority 2022, dated 2026).
Where two headings read alike, the source gives them in different places.

Key:
hMPV-GFP virus = experiment: microbe, parasite or virus in culture; format: cell-based, human metapneumovirus
Summary of the method: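 VERO cells infected with GFP-expressing hMPV at MOI 1.25 were incubated 48 h at 37 °C with compound in 10-point 3-fold dilutions (typically 40,300–2 nM final). GFP-positive cells were counted by imaging. Same-well CellTiter-Glo gave cytotoxicity, and IC50/CC50 came from 4-parameter logistic fits.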

RSV-A2-GFP virus = experiment: microbe, parasite or virus in culture; format: cell-based, Human Respiratory Syncytial Virus
Summary of the method: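 Assay-ready frozen Calu-1 cells at 20,000 cells/mL were infected with recombinant RSV-A2-GFP (MOI 1.2) in DMEM with 2% FBS. Cells were exposed to 10-point 3-fold compound dilutions for 96 h at 37° C. GFP-positive cells were counted by imaging, with same-well CellTiter-Glo for cytotoxicity, and IC50 and CC50 came from 4-parameter logistic fits.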

[1] = human metapneumovirus, Vero, 48 h, read-out: hMPV EC50, VERO cells infected with hMPV-GFP, 48 hrs, GFP-expressing cells counted
[2] = human respiratory syncytial virus, Calu-1, 96 h, read-out: RSV EC50, Calu-1 cells infected with RSV-A2-GFP, 96 hrs, GFP-expressing cells counted
[3] = VERO cells infected with hMPV-GFP, 48 hrs, GFP-expressing cells counted, read-out: hMPV EC50
[4] = Calu-1 cells infected with RSV-A2-GFP, 96 hrs, GFP-expressing cells counted, read-out: RSV EC50
[5] = read-out: hMPV EC50, VERO cells infected with hMPV-GFP, 48 hrs, GFP-expressing cells counted
[6] = read-out: RSV EC50, Calu-1 cells infected with RSV-A2-GFP, 96 hrs, GFP-expressing cells counted

SMILES	EC50 (hMPV-GFP virus; [3]) [nM]	EC50 (RSV-A2-GFP virus; [4]) [nM]	other results
Cc1nn(-c2ncccn2)c(F)c1C(=O)N1C[C@@H]2[C@H](C1)[C@H]2Oc1cc(C(C)(C)N)cc(-c2ccc(F)cc2)n1 [Example 79, ((1R,5S,6s)-6-((4-(2-aminopropan-2-yl)-6-(4-fluorophenyl)pyridin-2-yl)oxy)-3-azabicyclo[3.1.0]hexan-3-yl)(5-fluoro-3-methyl-1-(pyrimidin-2-yl)-1H-pyrazol-4-yl)methanone]			EC50 (hMPV-GFP virus; [1]): > 100 nM; EC50 (RSV-A2-GFP virus; [2]): < 10 nM
Cc1ccc(-c2cc(C(C)(C)N)cc(O[C@H]3[C@@H]4CN(C(=O)c5sc(-c6ncccn6)nc5C)C[C@@H]43)n2)cc1F [Example 37, ((1R,5S,6s)-6-((4-(2-aminopropan-2-yl)-6-(3-fluoro-4-methylphenyl)pyridin-2-yl)oxy)-3-azabicyclo[3.1.0]hexan-3-yl)(4-methyl-2-(pyrimidin-2-yl)thiazol-5-yl)methanone]	10 to 100	< 10	
Cc1nc(-c2ncccn2)sc1C(=O)N1C[C@@H]2[C@H](C1)[C@H]2Oc1cc(C(C)(C)N)cc(N2CCC(C)(C)CC2)n1 [Example 123, ((1R,5S,6s)-6-((4-(2-aminopropan-2-yl)-6-(4,4-dimethylpiperidin-1-yl)pyridin-2-yl)oxy)-3-azabicyclo[3.1.0]hexan-3-yl)(4-methyl-2-(pyrimidin-2-yl)thiazol-5-yl)methanone]	> 100	< 10	
Cc1cc(-c2cc(C(C)(C)N)cc(O[C@H]3[C@@H]4CN(C(=O)c5sc(-c6ncccn6)nc5C)C[C@@H]43)n2)ccc1F [Example 35, ((1R,5S,6s)-6-((4-(2-aminopropan-2-yl)-6-(4-fluoro-3-methylphenyl)pyridin-2-yl)oxy)-3-azabicyclo[3.1.0]hexan-3-yl)(4-methyl-2-(pyrimidin-2-yl)thiazol-5-yl)methanone]	> 100	< 10	
Cn1nc(-c2ncccn2)cc1C(=O)N1C[C@H]2[C@H](Oc3cc(C(C)(C)N)cc(-c4ccc(F)cc4F)n3)[C@@]2(C)C1 (single isomer, unassigned; enantiomer 2) [Example 108B]			EC50 (hMPV-GFP virus; [5]): > 100 nM; EC50 (RSV-A2-GFP virus; [6]): < 10 nM
Cn1nc(-c2ncccn2)cc1C(=O)N1C[C@H]2[C@H](Oc3cc(C(C)(C)N)cc(-c4ccc(C(F)(F)F)cc4)n3)[C@@]2(C)C1 (single isomer, unassigned; enantiomer 2) [Example 110B]			EC50 (hMPV-GFP virus; [5]): > 100 nM; EC50 (RSV-A2-GFP virus; [6]): < 10 nM
Cc1nc(-c2ncccn2)sc1C(=O)N1C[C@H]2[C@H](Oc3cc(C(C)(C)N)cc(-c4ccc(F)cc4)n3)[C@@]2(C)C1 (single isomer, unassigned; enantiomer 2) [Example 103B]			EC50 (hMPV-GFP virus; [1]): 10 to 100 nM; EC50 (RSV-A2-GFP virus; [2]): < 10 nM
Cc1nc(-c2ncccn2)oc1C(=O)N1C[C@@H]2[C@H](C1)[C@H]2Oc1cc(C(C)(C)N)cc(-c2ccc(F)cc2)n1 [Example 78, ((1R,5S,6s)-6-((4-(2-aminopropan-2-yl)-6-(4-fluorophenyl)pyridin-2-yl)oxy)-3-azabicyclo[3.1.0]hexan-3-yl)(4-methyl-2-(pyrimidin-2-yl)oxazol-5-yl)methanone]			EC50 (hMPV-GFP virus; [1]): > 100 nM; EC50 (RSV-A2-GFP virus; [2]): 10 to 100 nM
Cc1nn(-c2ncccn2)cc1C(=O)N1C[C@@H]2[C@H](C1)[C@H]2Oc1cc(C(C)(C)N)cc(-c2ccc3c(c2)CC3(F)F)n1 [Example 99, ((1R,5S,6s)-6-((4-(2-aminopropan-2-yl)-6-(7,7-difluorobicyclo[4.2.0]octa-1(6),2,4-trien-3-yl)pyridin-2-yl)oxy)-3-azabicyclo[3.1.0]hexan-3-yl)(3-methyl-1-(pyrimidin-2-yl)-1H-pyrazol-4-yl)methanone]	> 100	< 10	
CCc1nn(-c2ncccn2)cc1C(=O)N1C[C@@H]2[C@H](C1)[C@H]2Oc1cc(C(C)(C)N)cc(N2CCC(C)(C)CC2)n1 [Example 124, ((1R,5S,6s)-6-((4-(2-aminopropan-2-yl)-6-(4,4-dimethylpiperidin-1-yl)pyridin-2-yl)oxy)-3-azabicyclo[3.1.0]hexan-3-yl)(3-ethyl-1-(pyrimidin-2-yl)-1H-pyrazol-4-yl)methanone]	> 100	< 10	
Cc1nc(-c2ncccn2)sc1C(=O)N1C[C@@H]2[C@H](C1)[C@H]2Oc1cc(C(C)(C)N)cc(-c2ccc(C(F)(F)F)c(F)c2F)n1 [Example 31, ((1R,5S,6s)-6-((4-(2-aminopropan-2-yl)-6-(2,3-difluoro-4-(trifluoromethyl)phenyl)pyridin-2-yl)oxy)-3-azabicyclo[3.1.0]hexan-3-yl)(4-methyl-2-(pyrimidin-2-yl)thiazol-5-yl)methanone]	10 to 100	< 10	
Cc1nc(-c2ncccn2)sc1C(=O)N1C[C@@H]2[C@H](C1)[C@H]2Oc1cc(C(C)(C)N)cc(-c2ccc(Cl)cc2)n1 [Example 19, ((1R,5S,6s)-6-((4-(2-aminopropan-2-yl)-6-(4-chlorophenyl)pyridin-2-yl)oxy)-3-azabicyclo[3.1.0]hexan-3-yl)(4-methyl-2-(pyrimidin-2-yl)thiazol-5-yl)methanone]	< 10	< 10	
CC(O)c1nn(-c2ncccn2)cc1C(=O)N1C[C@@H]2C(Oc3cc(C(C)(C)N)cc(-c4ccc(F)c(F)c4)n3)[C@@H]2C1 (single isomer, unassigned; enantiomer 2) [Example 96B]	> 100	< 10	
CCC(C)(N)c1cc(OC2[C@H]3CN(C(=O)c4cn(-c5ncccn5)nc4C)C[C@@H]23)nc(-c2ccc(F)cc2)c1 (single isomer, unassigned; enantiomer 1) [Example 116A]	> 100	< 10	
Cc1nc(-c2ncccn2)sc1C(=O)N1C[C@@H]2[C@H](C1)[C@H]2Oc1cc(C(C)(C)N)cc(-c2ccc(C#N)c(F)c2)n1 [Example 36, 4-(4-(2-aminopropan-2-yl)-6-(((1R,5S,6s)-3-(4-methyl-2-(pyrimidin-2-yl)thiazole-5-carbonyl)-3-azabicyclo[3.1.0]hexan-6-yl)oxy)pyridin-2-yl)-2-fluorobenzonitrile]	10 to 100	< 10	
Cc1nc(-c2ncccn2)sc1C(=O)N1C[C@@H]2[C@H](C1)[C@H]2Oc1cc(C(C)(C)N)cc(-c2ccc(C(F)(F)F)cc2)n1 [Example 27, ((1R,5S,6s)-6-((4-(2-aminopropan-2-yl)-6-(4-(trifluoromethyl)phenyl)pyridin-2-yl)oxy)-3-azabicyclo[3.1.0]hexan-3-yl)(4-methyl-2-(pyrimidin-2-yl)thiazol-5-yl)methanone]	10 to 100	< 10	
Cc1nc(-c2ncccn2)sc1C(=O)N1C[C@@H]2[C@H](C1)[C@H]2Oc1cc(C(C)(C)N)cc(-c2ccc(F)cc2F)n1 [Example 97, ((1R,5S,6s)-6-((4-(2-aminopropan-2-yl)-6-(2,4-difluorophenyl)pyridin-2-yl)oxy)-3-azabicyclo[3.1.0]hexan-3-yl)(4-methyl-2-(pyrimidin-2-yl)thiazol-5-yl)methanone]			EC50 (hMPV-GFP virus; [1]): 10 to 100 nM; EC50 (RSV-A2-GFP virus; [2]): < 10 nM
Cc1cc(F)ccc1-c1cc(C(C)(C)N)cc(O[C@H]2[C@@H]3CN(C(=O)c4sc(-c5ncccn5)nc4C)C[C@@H]32)n1 [Example 39, ((1R,5S,6s)-6-((4-(2-aminopropan-2-yl)-6-(4-fluoro-2-methylphenyl)pyridin-2-yl)oxy)-3-azabicyclo[3.1.0]hexan-3-yl)(4-methyl-2-(pyrimidin-2-yl)thiazol-5-yl)methanone]	10 to 100	< 10	
COc1nn(-c2ncccn2)cc1C(=O)N1C[C@@H]2[C@H](C1)[C@H]2Oc1cc(C(C)(C)N)c(Cl)c(-c2ccc(F)cc2)n1 [Example 121, ((1R,5S,6s)-6-((4-(2-aminopropan-2-yl)-5-chloro-6-(4-fluorophenyl)pyridin-2-yl)oxy)-3-azabicyclo[3.1.0]hexan-3-yl)(3-methoxy-1-(pyrimidin-2-yl)-1H-pyrazol-4-yl)methanone]	> 100	< 10	
Cc1nn(-c2ncccn2)cc1C(=O)N1C[C@@H]2[C@H](C1)[C@H]2Oc1cc(C(N)C(C)C)cc(-c2ccc(F)cc2)n1 (stereo partly drawn) [Example 118A, ent-((1R,5S,6s)-6-((4-(1-amino-2-methylpropyl)-6-(4-fluorophenyl)pyridin-2-yl)oxy)-3-azabicyclo[3.1.0]hexan-3-yl)(3-methyl-1-(pyrimidin-2-yl)-1H-pyrazol-4-yl)methanone]	> 100	< 10	
CC(C)(N)c1cc(O[C@H]2[C@@H]3CN(C(=O)c4cn(-c5ncccn5)nc4N)C[C@@H]32)nc(-c2ccc(F)cc2)c1 [Example 70, (3-amino-1-(pyrimidin-2-yl)-1H-pyrazol-4-yl)((1R,5S,6s)-6-((4-(2-aminopropan-2-yl)-6-(4-fluorophenyl)pyridin-2-yl)oxy)-3-azabicyclo[3.1.0]hexan-3-yl)methanone]	> 100	< 10	
Cc1nn(-c2ncccn2)cc1C(=O)N1C[C@H]2[C@H](Oc3cc(C(C)(C)N)cc(-c4ccc(C(F)(F)F)cc4)n3)[C@@]2(C)C1 (single isomer, unassigned; enantiomer 2) [Example 111B]			EC50 (hMPV-GFP virus; [5]): 10 to 100 nM; EC50 (RSV-A2-GFP virus; [6]): < 10 nM
